Results taken from patent US10434103B2, “Crystal of 3,5-disubstituted benzene alkynyl compound” (TAIHO PHARMACEUTICAL CO., LTD., priority 2015, dated 2019).

What was measured:
[1] = Differential scanning calorimetry (DSC), phase transition on heating; details: when the temperature was increased (10° C./min)
Protocol: DSC measurement was performed under the following conditions.
Device: TA Instruments Q1000
Sample Container: made of aluminum
Temperature Increase Rate: 10° C./min
Atmospheric Gas: Nitrogen
Nitrogen Gas Flow: 50 ml/min

in vivo = details: BALB/c, mouse, plasma, po, 50 mg/kg
Protocol: (§1) After 0.5, 1, 2, 4, and 6 hours from administration, blood of each mouse was collected from the retro-orbital sinus, and the concentration of compound 1 in plasma was measured.

[2] = Oral absorbability: plasma concentration of compound 1 after oral administration to mice; details: BALB/c mice, 50 mg/kg, suspension in 0.5% HPMC aqueous solution, plasma sampled 0.5-6 hours
Protocol: as §1

Compound | peak that suggests a phase transition in DSC measurement [1] | AUC (in vivo) [µM·h] | AUC [2] [µM·h]
C=CC(=O)N1CC[C@H](n2nc(C#Cc3cc(OC)cc(OC)c3)c3c(N)ncnc32)C1 [Crystal I, (S)-1-(3-(4-amino-3-((3,5-dimethoxyphenyl)ethynyl)-1H-pyrazolo[3,4-d]pyrimidin-1-yl)-1-pyrrolidinyl)-2-propen-1-one] | did not exhibit a peak that suggests a phase transition | 9.82 | 
C=CC(=O)N1CC[C@H](n2nc(C#Cc3cc(OC)cc(OC)c3)c3c(N)ncnc32)C1 [Crystal II, (S)-1-(3-(4-amino-3-((3,5-dimethoxyphenyl)ethynyl)-1H-pyrazolo[3,4-d]pyrimidin-1-yl)-1-pyrrolidinyl)-2-propen-1-one] | did not exhibit a peak that suggests a phase transition |  | 4.99
